Results on one compound are retold here after publication PMC6084781 (Cancer letters, 2018).

The term EC50 denotes the concentration at which the effect is half-maximal. Read a high EC50 as a need for much substance.

In one experiment the target is ABCB1 (Homo sapiens, UniProt P08183). Briefly: vanadate-sensitive ATPase stimulation in membrane vesicles. It counts as biochemical.
In another experiment the target is T1, ABCG2 (Homo sapiens, UniProt Q9UNQ0).
T1 sequence (Q9UNQ0 1-655): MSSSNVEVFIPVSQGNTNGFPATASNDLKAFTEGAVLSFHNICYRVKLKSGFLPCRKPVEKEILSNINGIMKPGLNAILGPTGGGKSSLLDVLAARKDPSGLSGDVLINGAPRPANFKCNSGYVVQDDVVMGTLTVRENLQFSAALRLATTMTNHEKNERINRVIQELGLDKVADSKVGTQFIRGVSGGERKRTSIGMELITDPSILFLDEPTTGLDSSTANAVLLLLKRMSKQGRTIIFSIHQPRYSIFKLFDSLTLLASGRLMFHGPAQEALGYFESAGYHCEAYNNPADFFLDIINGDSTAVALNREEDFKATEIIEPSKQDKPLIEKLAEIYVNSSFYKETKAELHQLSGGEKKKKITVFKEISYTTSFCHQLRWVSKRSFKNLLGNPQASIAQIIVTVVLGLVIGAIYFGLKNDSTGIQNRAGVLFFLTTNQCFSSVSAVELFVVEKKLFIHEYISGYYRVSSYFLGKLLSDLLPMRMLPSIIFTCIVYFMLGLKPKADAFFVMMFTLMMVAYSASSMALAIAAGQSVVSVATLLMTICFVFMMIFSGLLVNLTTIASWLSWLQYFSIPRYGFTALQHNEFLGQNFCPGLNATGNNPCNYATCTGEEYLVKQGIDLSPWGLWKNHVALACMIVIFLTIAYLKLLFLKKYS
The description is as above. It counts as biochemical.

ABCB1, sequence (P08183 whole entry): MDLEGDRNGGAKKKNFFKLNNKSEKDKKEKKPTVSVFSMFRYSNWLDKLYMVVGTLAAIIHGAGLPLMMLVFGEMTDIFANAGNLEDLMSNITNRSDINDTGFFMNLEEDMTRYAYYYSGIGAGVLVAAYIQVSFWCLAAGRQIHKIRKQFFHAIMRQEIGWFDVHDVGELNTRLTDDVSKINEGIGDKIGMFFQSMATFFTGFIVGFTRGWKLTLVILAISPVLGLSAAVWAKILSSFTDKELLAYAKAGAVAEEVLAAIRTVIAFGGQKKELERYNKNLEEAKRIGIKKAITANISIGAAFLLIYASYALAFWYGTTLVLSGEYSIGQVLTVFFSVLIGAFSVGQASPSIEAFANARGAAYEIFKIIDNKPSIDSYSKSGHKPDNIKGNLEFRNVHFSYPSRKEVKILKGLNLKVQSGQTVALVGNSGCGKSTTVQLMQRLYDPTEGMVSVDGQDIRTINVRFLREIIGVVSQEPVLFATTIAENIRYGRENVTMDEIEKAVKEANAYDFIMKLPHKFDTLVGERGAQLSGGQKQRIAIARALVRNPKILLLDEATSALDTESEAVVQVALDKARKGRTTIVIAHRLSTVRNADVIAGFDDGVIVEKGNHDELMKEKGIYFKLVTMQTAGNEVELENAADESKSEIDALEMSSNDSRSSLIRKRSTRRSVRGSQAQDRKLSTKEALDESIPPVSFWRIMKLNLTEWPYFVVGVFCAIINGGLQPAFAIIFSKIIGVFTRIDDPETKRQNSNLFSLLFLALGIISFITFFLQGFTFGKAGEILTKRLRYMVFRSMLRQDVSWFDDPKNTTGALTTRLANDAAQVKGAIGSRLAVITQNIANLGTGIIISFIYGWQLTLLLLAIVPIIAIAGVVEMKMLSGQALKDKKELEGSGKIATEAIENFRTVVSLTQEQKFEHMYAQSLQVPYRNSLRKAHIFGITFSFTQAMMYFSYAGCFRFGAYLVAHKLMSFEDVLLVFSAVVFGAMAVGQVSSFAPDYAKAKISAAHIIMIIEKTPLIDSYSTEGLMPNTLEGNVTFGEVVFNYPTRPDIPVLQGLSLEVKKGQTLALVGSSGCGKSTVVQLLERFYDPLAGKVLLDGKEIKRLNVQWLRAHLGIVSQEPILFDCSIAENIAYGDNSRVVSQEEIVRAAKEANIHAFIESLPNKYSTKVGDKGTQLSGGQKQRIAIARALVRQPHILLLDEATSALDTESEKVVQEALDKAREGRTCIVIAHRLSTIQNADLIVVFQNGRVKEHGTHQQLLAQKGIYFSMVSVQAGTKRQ

`COc1cc2c(cc1OC)CN(C(=O)/C=C/c1c(-c3ccccc3)n(C)c3ncccc13)CC2` [SIS3]: the EC50 at ABCB1 was ~160 nM; at ABCG2 it was ~60 nM.
